pIC50: −log10 of the molar value.
Test system: HOP-62 complex spheroids with HUVEC/MSC, viability
Experiment: Anticancer human tumor HOP-62 cell line growth inhibition [RAS];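 further: spheroids exposed to agents for seven days before readout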;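 on viability, T/C: 100% = DMSO vehicle control viability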
Details: for pIC50: curve of first compound; for viability, T/C: stronger effect = lower value
Procedure, shortened: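 Tumour cells grown as complex spheroids with HUVEC endothelial cells and mesenchymal stem cells, treated with RAS pathway inhibitor combinations. Each agent spans half-log steps from near clinical Cmax, or 10 microM where Cmax is unknown.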

[1] = second compound 0.00316 µM, first compound 0.0316 µM
[2] = second compound 0.00316 µM, first compound 0.1 µM
[3] = second compound 0.00316 µM, first compound 0.316 µM
[4] = second compound 0.00316 µM, first compound 1 µM
[5] = second compound 0.00316 µM, first compound 3.16 µM
[6] = second compound 0.00316 µM, first compound 10 µM
[7] = second compound 0.01 µM, first compound 0.0316 µM
[8] = second compound 0.01 µM, first compound 0.1 µM
[9] = second compound 0.01 µM, first compound 0.316 µM
[10] = second compound 0.01 µM, first compound 1 µM
[11] = second compound 0.01 µM, first compound 3.16 µM
[12] = second compound 0.01 µM, first compound 10 µM
[13] = second compound 0.0316 µM, first compound 0.0316 µM
[14] = second compound 0.0316 µM, first compound 0.1 µM
[15] = second compound 0.0316 µM, first compound 0.316 µM
[16] = second compound 0.0316 µM, first compound 1 µM
[17] = second compound 0.0316 µM, first compound 3.16 µM
[18] = second compound 0.0316 µM, first compound 10 µM
[19] = second compound 0.1 µM, first compound 0.0316 µM
[20] = second compound 0.1 µM, first compound 0.1 µM
[21] = second compound 0.1 µM, first compound 0.316 µM
[22] = second compound 0.1 µM, first compound 1 µM
[23] = second compound 0.1 µM, first compound 3.16 µM
[24] = second compound 0.1 µM, first compound 10 µM
[25] = second compound 0.316 µM, first compound 0.0316 µM
[26] = second compound 0.316 µM, first compound 0.1 µM
[27] = second compound 0.316 µM, first compound 0.316 µM
[28] = second compound 0.316 µM, first compound 1 µM
[29] = second compound 0.316 µM, first compound 3.16 µM
[30] = second compound 0.316 µM, first compound 10 µM
[31] = second compound 1 µM, first compound 0.0316 µM
[32] = second compound 1 µM, first compound 0.1 µM
[33] = second compound 1 µM, first compound 0.316 µM
[34] = second compound 1 µM, first compound 1 µM
[35] = second compound 1 µM, first compound 3.16 µM
[36] = second compound 1 µM, first compound 10 µM

CC1(O)CCCC1n1c(=O)c(C(F)F)cc2cnc(NC3CCN(S(C)(=O)=O)CC3)nc21 (stereo not given) + C=CC(=O)N1CCN(c2nc(OCC3CCCN3C)nc3c(F)c(-c4nc(N)cc(C)c4C(F)(F)F)c(Cl)cc23)C(C)C1
pIC50 (second compound 0.00316 µM): 6.85
pIC50 (second compound 0.01 µM): 7.02
pIC50 (second compound 0.0316 µM): 7.39
pIC50 (second compound 0.1 µM): 7.09
pIC50 (second compound 0.316 µM): > 7.50
pIC50 (second compound 1 µM): 7.25
viability, T/C [1]: 64%
viability, T/C [2]: 47.8%
viability, T/C [3]: 38.4%
viability, T/C [4]: 35.6%
viability, T/C [5]: 32.3%
viability, T/C [6]: 1.76%
viability, T/C [7]: 66.3%
viability, T/C [8]: 43.9%
viability, T/C [9]: 28.7%
viability, T/C [10]: 34%
viability, T/C [11]: 27.7%
viability, T/C [12]: 0.91%
viability, T/C [13]: 55.5%
viability, T/C [14]: 39.8%
viability, T/C [15]: 29.9%
viability, T/C [16]: 28.3%
viability, T/C [17]: 22.9%
viability, T/C [18]: 0.75%
viability, T/C [19]: 66.5%
viability, T/C [20]: 40%
viability, T/C [21]: 30.1%
viability, T/C [22]: 30%
viability, T/C [23]: 29.5%
viability, T/C [24]: 0.8%
viability, T/C [25]: 53.6%
viability, T/C [26]: 37.6%
viability, T/C [27]: 30.6%
viability, T/C [28]: 32.6%
viability, T/C [29]: 21.9%
viability, T/C [30]: 0.96%
viability, T/C [31]: 59.4%
viability, T/C [32]: 39.4%
viability, T/C [33]: 29.9%
viability, T/C [34]: 27.2%
viability, T/C [35]: 25.7%
viability, T/C [36]: 1.08%

CCC(CC)c1cc(NC2CCC(N)C2)n2nccc2n1 (stereo not given) + C=CC(=O)N1CCN(c2nc(OCC3CCCN3C)nc3c(F)c(-c4nc(N)cc(C)c4C(F)(F)F)c(Cl)cc23)C(C)C1
pIC50 (second compound 0.00316 µM): 5.84
pIC50 (second compound 0.01 µM): 5.88
pIC50 (second compound 0.0316 µM): 5.84
pIC50 (second compound 0.1 µM): 5.84
pIC50 (second compound 0.316 µM): 5.87
pIC50 (second compound 1 µM): 5.86
viability, T/C [1]: 82.5%
viability, T/C [2]: 79.4%
viability, T/C [3]: 88.6%
viability, T/C [4]: 71.8%
viability, T/C [5]: 2.08%
viability, T/C [6]: 1.07%
viability, T/C [7]: 77.7%
viability, T/C [8]: 69.6%
viability, T/C [9]: 70.3%
viability, T/C [10]: 65.5%
viability, T/C [11]: 1.41%
viability, T/C [12]: 0.46%
viability, T/C [13]: 75.2%
viability, T/C [14]: 68.4%
viability, T/C [15]: 76.5%
viability, T/C [16]: 73.2%
viability, T/C [17]: 0.98%
viability, T/C [18]: 0.34%
viability, T/C [19]: 66.2%
viability, T/C [20]: 70.5%
viability, T/C [21]: 74.6%
viability, T/C [22]: 73.5%
viability, T/C [23]: 2.62%
viability, T/C [24]: 0.16%
viability, T/C [25]: 70.7%
viability, T/C [26]: 68.9%
viability, T/C [27]: 71.4%
viability, T/C [28]: 68.2%
viability, T/C [29]: 0.89%
viability, T/C [30]: 0.5%
viability, T/C [31]: 62.5%
viability, T/C [32]: 69.9%
viability, T/C [33]: 70.9%
viability, T/C [34]: 73.4%
viability, T/C [35]: 1.28%
viability, T/C [36]: 0.62%

CCN1CCN(Cc2ccc(Nc3ncc(F)c(-c4cc(F)c5nc(C)n(C(C)C)c5c4)n3)nc2)CC1 + C=CC(=O)N1CCN(c2nc(OCC3CCCN3C)nc3c(F)c(-c4nc(N)cc(C)c4C(F)(F)F)c(Cl)cc23)C(C)C1
pIC50 (second compound 0.00316 µM): < 6.00
pIC50 (second compound 0.01 µM): < 6.00
pIC50 (second compound 0.0316 µM): 6.96
pIC50 (second compound 0.1 µM): < 6.00
pIC50 (second compound 0.316 µM): 6.21
pIC50 (second compound 1 µM): < 6.00
viability, T/C (second compound 0.00316 µM, first compound 0.00316 µM): 87.7%
viability, T/C (second compound 0.00316 µM, first compound 0.01 µM): 84.1%
viability, T/C [1]: 69.2%
viability, T/C [2]: 73%
viability, T/C [3]: 64.8%
viability, T/C [4]: 55.5%
viability, T/C (second compound 0.01 µM, first compound 0.00316 µM): 71.5%
viability, T/C (second compound 0.01 µM, first compound 0.01 µM): 64.3%
viability, T/C [7]: 62.5%
viability, T/C [8]: 55.9%
viability, T/C [9]: 57.3%
viability, T/C [10]: 48.8%
viability, T/C (second compound 0.0316 µM, first compound 0.00316 µM): 72.2%
viability, T/C (second compound 0.0316 µM, first compound 0.01 µM): 74.3%
viability, T/C [13]: 59%
viability, T/C [14]: 52.8%
viability, T/C [15]: 47.6%
viability, T/C [16]: 46.9%
viability, T/C (second compound 0.1 µM, first compound 0.00316 µM): 69.7%
viability, T/C (second compound 0.1 µM, first compound 0.01 µM): 57.6%
viability, T/C [19]: 59.9%
viability, T/C [20]: 51.3%
viability, T/C [21]: 68.2%
viability, T/C [22]: 45.2%
viability, T/C (second compound 0.316 µM, first compound 0.00316 µM): 69%
viability, T/C (second compound 0.316 µM, first compound 0.01 µM): 70.6%
viability, T/C [25]: 68.8%
viability, T/C [26]: 50.2%
viability, T/C [27]: 58%
viability, T/C [28]: 46.8%
viability, T/C (second compound 1 µM, first compound 0.00316 µM): 66.7%
viability, T/C (second compound 1 µM, first compound 0.01 µM): 58.6%
viability, T/C [31]: 50.6%
viability, T/C [32]: 59.9%
viability, T/C [33]: 54.7%
viability, T/C [34]: 47.1%

C[C@@H](NC(=O)c1ncnc(N)c1Cl)c1ncc(C(=O)Nc2cc(C(F)(F)F)c(Cl)cn2)s1 + C=CC(=O)N1CCN(c2nc(OCC3CCCN3C)nc3c(F)c(-c4nc(N)cc(C)c4C(F)(F)F)c(Cl)cc23)C(C)C1
pIC50 (second compound 0.00316 µM): < 5.00
pIC50 (second compound 0.01 µM): 5.06
pIC50 (second compound 0.0316 µM): 5.36
pIC50 (second compound 0.1 µM): 5.10
pIC50 (second compound 0.316 µM): < 5.00
pIC50 (second compound 1 µM): < 5.00
viability, T/C [1]: 88.6%
viability, T/C [2]: 80.2%
viability, T/C [3]: 80.9%
viability, T/C [4]: 83.9%
viability, T/C [5]: 71.8%
viability, T/C [6]: 53.3%
viability, T/C [7]: 74.8%
viability, T/C [8]: 67%
viability, T/C [9]: 69.7%
viability, T/C [10]: 67.1%
viability, T/C [11]: 63.4%
viability, T/C [12]: 48.1%
viability, T/C [13]: 69.1%
viability, T/C [14]: 67%
viability, T/C [15]: 71.1%
viability, T/C [16]: 70%
viability, T/C [17]: 52.2%
viability, T/C [18]: 43.9%
viability, T/C [19]: 69.2%
viability, T/C [20]: 68.5%
viability, T/C [21]: 64%
viability, T/C [22]: 70.3%
viability, T/C [23]: 58%
viability, T/C [24]: 47.6%
viability, T/C [25]: 67.5%
viability, T/C [26]: 67%
viability, T/C [27]: 69.8%
viability, T/C [28]: 64.7%
viability, T/C [29]: 57.7%
viability, T/C [30]: 49.2%
viability, T/C [31]: 66.7%
viability, T/C [32]: 63.3%
viability, T/C [33]: 64.1%
viability, T/C [34]: 63.6%
viability, T/C [35]: 55.9%
viability, T/C [36]: 52.4%

Cc1nc(N2CCC3(CC2)COC(C)C3N)c(CO)nc1Sc1ccnc(N)c1Cl (stereo not given) + C=CC(=O)N1CCN(c2nc(OCC3CCCN3C)nc3c(F)c(-c4nc(N)cc(C)c4C(F)(F)F)c(Cl)cc23)C(C)C1
pIC50 (second compound 0.00316 µM): 6.86
pIC50 (second compound 0.01 µM): 7.14
pIC50 (second compound 0.0316 µM): 7.36
pIC50 (second compound 0.1 µM): 7.28
pIC50 (second compound 0.316 µM): 7.25
pIC50 (second compound 1 µM): > 7.50
viability, T/C [1]: 68.6%
viability, T/C [2]: 52.6%
viability, T/C [3]: 40.3%
viability, T/C [4]: 28.7%
viability, T/C [5]: 14.1%
viability, T/C [6]: 13.8%
viability, T/C [7]: 58.6%
viability, T/C [8]: 46.1%
viability, T/C [9]: 32.8%
viability, T/C [10]: 21.3%
viability, T/C [11]: 10.6%
viability, T/C [12]: 8.87%
viability, T/C [13]: 52%
viability, T/C [14]: 44.8%
viability, T/C [15]: 30.5%
viability, T/C [16]: 17.4%
viability, T/C [17]: 13.7%
viability, T/C [18]: 9.06%
viability, T/C [19]: 56.5%
viability, T/C [20]: 41.5%
viability, T/C [21]: 29.1%
viability, T/C [22]: 19.5%
viability, T/C [23]: 10.4%
viability, T/C [24]: 9.33%
viability, T/C [25]: 54.8%
viability, T/C [26]: 44.8%
viability, T/C [27]: 31.1%
viability, T/C [28]: 15.5%
viability, T/C [29]: 12.1%
viability, T/C [30]: 10.7%
viability, T/C [31]: 49.6%
viability, T/C [32]: 37.8%
viability, T/C [33]: 26.1%
viability, T/C [34]: 15.1%
viability, T/C [35]: 11.7%
viability, T/C [36]: 8.55%
